Assay results: ChEMBL document CHEMBL1129655, “A comparative molecular field analysis study of N-benzylpiperidines as acetylcholinesterase inhibitors” (J Med Chem, 1996)
pIC50: −log10 of the molar value.

Biological target: T1, Acetylcholinesterase (Mus musculus, UniProt P21836)
T1 sequence (P21836 whole entry): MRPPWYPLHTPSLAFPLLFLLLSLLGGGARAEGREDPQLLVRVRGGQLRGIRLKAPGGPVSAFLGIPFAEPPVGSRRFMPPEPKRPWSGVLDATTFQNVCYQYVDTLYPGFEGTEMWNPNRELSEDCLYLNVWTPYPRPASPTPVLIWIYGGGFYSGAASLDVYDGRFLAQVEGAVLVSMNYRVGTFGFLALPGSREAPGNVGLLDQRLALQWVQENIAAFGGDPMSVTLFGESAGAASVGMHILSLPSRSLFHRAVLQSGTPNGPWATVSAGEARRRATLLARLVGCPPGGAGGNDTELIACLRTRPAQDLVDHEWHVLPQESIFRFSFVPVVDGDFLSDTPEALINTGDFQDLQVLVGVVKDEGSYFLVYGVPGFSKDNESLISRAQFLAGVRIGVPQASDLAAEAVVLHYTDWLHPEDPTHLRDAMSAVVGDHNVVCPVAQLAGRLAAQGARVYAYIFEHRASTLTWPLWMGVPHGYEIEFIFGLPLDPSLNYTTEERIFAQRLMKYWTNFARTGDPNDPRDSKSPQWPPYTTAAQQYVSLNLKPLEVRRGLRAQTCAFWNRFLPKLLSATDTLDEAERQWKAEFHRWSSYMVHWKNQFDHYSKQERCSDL
Description: Inhibition against Acetylcholinesterase (AChE)

O=C(NCCC1CCN(CCc2ccccc2)CC1)c1ccccc1
pIC50: 4.89
